Experimental data: ChEMBL document CHEMBL1201862, “PubChem BioAssay data set” (2004)
Activity calls are given as the source filed them. Rule as the data show it, for most assays here: actives have a measured EC50 and inactives only a lower limit.

Tests used:
[1] = Luminescence Cell-Based Dose Response HTS to Identify Activators of Luciferase Translation or Activity in H4 […] Cells. [Related pubchem assays: 1829 (Project Summary), 1814 (Primary HTS)]; format: functional
H4 = experiment: Luminescence Cell-Based Dose Response HTS to Identify Activators of 5'UTR Stem-Loop Driven Prion Protein mRNA Translation in H4 Neuroglioblastoma Cells. [Related pubchem assays: 1829 (Project Summary), 1814 (Primary HTS)]; format: functional; settings: Homo sapiens
Cytochrome P450 2C9 = Cytochrome P450 2C9 (Homo sapiens, UniProt P11712)
[2] = tested on: Streptococcus sp. 'group A'; experiment: growth inhibition of control SK(-) GAS strain, dose response, counter-screen for streptokinase expression inhibitor project, luminescence, kanamycin, BacTiterGlo, confirmation (AID 1900); format: functional, organism-based
Streptokinase A = target: T1, Streptokinase A (Streptococcus pyogenes serotype M1, UniProt P10520); experiment: S. pyogenes streptokinase expression inhibitors, potency, dose response, plasminogen activation absorbance, OD405 (AID 1914); format: functional, Streptococcus pyogenes M1 GAS;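 also: secreted streptokinase activity via plasminogen activation per viability signal from cell pellet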
T1 sequence (P10520 whole entry): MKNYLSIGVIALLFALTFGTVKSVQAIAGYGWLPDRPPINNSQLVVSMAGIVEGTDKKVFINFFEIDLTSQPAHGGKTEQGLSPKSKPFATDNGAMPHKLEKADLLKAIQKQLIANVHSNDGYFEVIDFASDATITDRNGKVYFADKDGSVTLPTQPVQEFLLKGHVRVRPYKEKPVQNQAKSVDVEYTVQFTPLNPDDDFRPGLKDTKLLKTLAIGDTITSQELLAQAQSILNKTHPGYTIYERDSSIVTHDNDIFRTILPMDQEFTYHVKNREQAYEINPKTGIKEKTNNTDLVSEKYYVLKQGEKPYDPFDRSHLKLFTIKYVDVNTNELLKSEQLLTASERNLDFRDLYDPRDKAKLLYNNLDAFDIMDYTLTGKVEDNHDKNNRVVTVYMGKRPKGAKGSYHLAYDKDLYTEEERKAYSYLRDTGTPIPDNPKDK

Streptococcus = experiment: Group A Streptococcus viability loss, dose response, counter-screen for streptokinase expression inhibitor project, luminescence, BacTiterGlo (AID 1915); format: functional, organism-based;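 also: potency for reduction of bacterial viability or growth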
[3] = inhibitors of intracellular T. cruzi replication, confirmation, NIH3T3 host cells, beta-gal luminescence (AID 2044); format: functional, cell-based;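 also: intracellular parasites grown in NIH/3T3 mouse fibroblasts as host cells; luminescent beta-galactosidase reporter signal from transgenic T. cruzi replicating inside host cells; inhibitors lower the luminescence signal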
[4] = cytotoxicity toward NIH3T3 fibroblasts, dose response, counter-screen, cell-based, ATP luminescence, mouse fibroblasts (AID 2010); format: functional;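 also: cells exposed to compound for about 90 hours before reading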
Cytochrome P450 3A4 = Cytochrome P450 3A4 (Homo sapiens, UniProt P08684);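 also: CYP3A4 tested as one member of a cytochrome P450 panel screen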
Sequence of Cytochrome P450 3A4 (P08684 whole entry): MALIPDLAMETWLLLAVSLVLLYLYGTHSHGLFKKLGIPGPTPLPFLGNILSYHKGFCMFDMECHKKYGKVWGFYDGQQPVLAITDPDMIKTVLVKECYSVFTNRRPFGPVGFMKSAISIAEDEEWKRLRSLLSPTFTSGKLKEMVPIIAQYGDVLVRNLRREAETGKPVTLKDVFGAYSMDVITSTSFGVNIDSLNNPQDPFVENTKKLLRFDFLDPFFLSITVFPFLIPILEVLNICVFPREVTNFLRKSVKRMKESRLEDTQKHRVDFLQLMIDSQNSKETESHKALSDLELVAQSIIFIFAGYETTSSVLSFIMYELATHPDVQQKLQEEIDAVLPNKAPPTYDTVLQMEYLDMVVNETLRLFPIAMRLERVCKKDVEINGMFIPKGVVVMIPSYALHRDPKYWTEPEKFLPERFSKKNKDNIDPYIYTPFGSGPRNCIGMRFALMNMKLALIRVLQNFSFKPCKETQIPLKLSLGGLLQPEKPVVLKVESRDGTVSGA

Sequence of Cytochrome P450 2C9 (P11712 whole entry): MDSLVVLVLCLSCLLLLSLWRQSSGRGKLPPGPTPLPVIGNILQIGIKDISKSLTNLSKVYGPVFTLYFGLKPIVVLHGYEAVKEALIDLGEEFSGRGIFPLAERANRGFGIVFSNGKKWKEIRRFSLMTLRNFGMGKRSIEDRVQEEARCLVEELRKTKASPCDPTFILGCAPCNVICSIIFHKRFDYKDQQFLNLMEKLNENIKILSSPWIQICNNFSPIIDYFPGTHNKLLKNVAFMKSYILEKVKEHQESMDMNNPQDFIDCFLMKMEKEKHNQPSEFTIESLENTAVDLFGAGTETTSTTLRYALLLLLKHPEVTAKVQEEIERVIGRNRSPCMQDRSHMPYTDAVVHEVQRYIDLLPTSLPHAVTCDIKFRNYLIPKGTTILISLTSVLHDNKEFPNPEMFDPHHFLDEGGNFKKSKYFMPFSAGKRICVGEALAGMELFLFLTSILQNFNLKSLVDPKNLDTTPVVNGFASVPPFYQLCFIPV

Fc1ccc(/C=C\c2[nH]ccc3c4ccccc4nc2-3)cc1
EC50 [1]: 17.7 µM (active) | EC50 (H4): > 120 µM (not active)

COc1cccc(-c2cncnc2NCc2ccc(OC)cc2OC)c1
AC50 (Cytochrome P450 2C9): 1 µM (inconclusive)

CCCn1c(=O)c(C(=O)Nc2ncccc2C)c(O)c2ccccc21
EC50 [2]: 9.49 µM (active) | EC50 (Streptokinase A): > 150 µM (not active) | EC50 (Streptococcus): 16.8 µM (active)

O=C(Cn1c(-c2ccccc2)c[n+]2ccsc12)c1ccccc1
EC50 [3]: 2.29 µM (active) | EC50 [4]: > 30 µM (not active)

O=C(CSc1nnc(-c2cccnc2)o1)Nc1ccccn1
EC50 [1]: 14.5 µM (active) | EC50 (H4): > 120 µM (not active)

COc1cccc(NCc2cc(=O)oc3cc(C)c(O)cc23)c1
EC50 [2]: 1.83 µM (active) | EC50 (Streptococcus): 2.79 µM (active)

O=C(c1ccco1)N(CCC(c1ccccc1)c1ccco1)Cc1ccco1 (configuration not stated)
AC50 (Cytochrome P450 3A4): 11.2 µM (inconclusive)

COCCOC(=O)C1=C(C)NC(=O)N(C(C)=O)C1c1ccc(Cl)cc1 (configuration not stated)
AC50 (Cytochrome P450 3A4): 17.8 µM (inconclusive)

CN(C)c1cc(-c2cccc(NS(C)(=O)=O)c2)ncn1
AC50 (Cytochrome P450 3A4): 25.1 µM (inconclusive)

COc1ccccc1CNc1ncncc1-c1ccccc1OC
AC50 (Cytochrome P450 2C9): 1.58 µM (inconclusive)

Cc1nc2ccccc2c(=O)n1NC(=O)/C=C/c1ccccc1Cl
EC50 [1]: 12.2 µM (active) | EC50 (H4): 84.4 µM (active)

Cc1cc2c(cc1C)-c1c(ss/c1=N\c1ccc(S(N)(=O)=O)cc1)C(C)(C)N2
EC50 [2]: 4.16 µM (active) | EC50 (Streptokinase A): 26.1 µM (active) | EC50 (Streptococcus): > 150 µM (not active)

O=C(CC(=O)c1ccccc1)Nc1cccnc1Cl
EC50 [1]: 61.9 µM (active) | EC50 (H4): 8.38 µM (active)

COc1ccc(CNC(=O)CN(Cc2ccccc2)S(=O)(=O)c2ccc(Cl)cc2)cc1
EC50 [3]: 3.15 µM (active) | EC50 [4]: > 60 µM (not active)

C/C(Cn1cnc([N+](=O)[O-])n1)=N\NC(=O)c1ccc(O)cc1O
EC50 [3]: 1.52 µM (active) | EC50 [4]: > 60 µM (not active)

O=C(C1CCCCC1)N(CCN1CCCC1)c1nc2ccccc2s1
EC50 [3]: 0.78 µM (active) | EC50 [4]: > 60 µM (not active)

O=c1c(-c2cccs2)nc2cnc(Oc3ccccc3)nc2n1Cc1cccs1
AC50 (Cytochrome P450 3A4): 15.8 µM (inconclusive) | AC50 (Cytochrome P450 2C9): 1.58 µM (inconclusive)

CCNC(C)(C)[C@@H](SS)c1ccc(Br)cc1
AC50 (Cytochrome P450 3A4): 5.01 µM (inconclusive) | AC50 (Cytochrome P450 2C9): 6.31 µM (inconclusive)

C[C@H]1CC[C@H]2C(=O)N3[C@H](c4ccc(Br)cc4)[C@@H](C)CC[C@H]3C(=O)N2[C@@H]1c1ccc(Br)cc1
AC50 (Cytochrome P450 3A4): 3.98 µM (inconclusive)

Clc1ccc(-c2cc3ccccc3nc2N2CCCC2)cc1
EC50 [2]: 8.89 µM (active) | EC50 (Streptokinase A): 17.6 µM (active) | EC50 (Streptococcus): > 150 µM (not active)

COc1ccc2c3c1O[C@@H]1C(=O)CC[C@@]4(O)[C@@H](C2)N(CC2CC2)CC[C@]314
AC50 (Cytochrome P450 3A4): 25.1 µM (inconclusive)

CC(C)c1c(C(=O)N/N=C/c2cccc(OCc3ccccc3)c2)nnn1-c1nonc1N
EC50 [2]: 8.03 µM (active) | EC50 (Streptokinase A): 9.73 µM (active) | EC50 (Streptococcus): 26.4 µM (active)

COc1ccccc1CNc1ncncc1-c1ccoc1
AC50 (Cytochrome P450 3A4): 0.794 µM (inconclusive) | AC50 (Cytochrome P450 2C9): 1.58 µM (inconclusive)

Cc1nn(C)c(Cl)c1CN1CCCC(C(=O)Nc2ccc(-c3cscn3)cc2)C1 (configuration not stated)
EC50 [2]: > 150 µM (not active) | EC50 (Streptokinase A): > 150 µM (not active) | EC50 (Streptococcus): > 150 µM (not active)

CC(C)CN1CCC2(CC1)CCN(C(=O)c1ccncc1)CC2
AC50 (Cytochrome P450 3A4): 15.8 µM (inconclusive)

Clc1ccccc1-c1cncnc1NCCc1cnc[nH]1
AC50 (Cytochrome P450 2C9): 1 µM (inconclusive)

CC(NC(=O)CN1CCCC1)C12CC3CC(CC(C3)C1)C2 (configuration not stated)
AC50 (Cytochrome P450 3A4): 14.1 µM (inconclusive)

O=C(Nc1ccccc1Sc1ccccc1)c1ccccc1F
EC50 (Streptokinase A): > 50 µM (not active) | EC50 (Streptococcus): > 150 µM (not active)

CCCC(N=C(S)NCC1CCCO1)C12CC3CC(CC(C3)C1)C2 (configuration not stated)
EC50 [2]: 12.3 µM (active) | EC50 (Streptococcus): > 150 µM (not active)

Cc1nc2cnc(N3CCN(C)CC3)nc2n(Cc2ccc(F)cc2)c1=O
AC50 (Cytochrome P450 3A4): 20 µM (inconclusive)

C1=C(CN2CCOCC2)COc2c1cccc2OC[C@@H]1CNCCO1
AC50 (Cytochrome P450 3A4): 39.8 µM (inconclusive)

CCCC(NC(=S)NCC1CCCO1)C12CC3CC(CC(C3)C1)C2 (configuration not stated)
EC50 (Streptokinase A): 18 µM (active)

O=[N+]([O-])c1ccc(S(=O)(=O)NCC(c2cccnc2)N2CCc3ccccc32)cc1 (configuration not stated)
EC50 [3]: 0.622 µM (active) | EC50 [4]: > 60 µM (not active)

CN1CCC(N(C)C(=O)c2sc3cc(F)ccc3c2Cl)CC1
EC50 [3]: 0.197 µM (active) | EC50 [4]: > 60 µM (not active)

C/C(=N\NC(=O)c1[nH]c2c([N+](=O)[O-])cc(C)cc2c1-c1ccccc1)c1cccnc1
AC50 (Cytochrome P450 2C9): 8.91 µM (inconclusive)

O=C(Nc1cc(C(F)(F)F)ccc1-n1cncn1)c1ccc(Br)cc1
AC50 (Cytochrome P450 2C9): 3.16 µM (inconclusive)

C[C@@]12CC[C@H]3[C@@H](CC[C@@H]4C[C@H]5S[C@H]5C[C@]43C)[C@H]1CC[C@H]2O
AC50 (Cytochrome P450 3A4): 6.31 µM (inconclusive)

C=C(C)CSc1nncn1/N=C/c1ccc(OC)cc1
EC50 [1]: > 120 µM (not active) | EC50 (H4): 11.9 µM (active)

COc1cccc(CNC(=O)CCC2CCCN(Cc3cc4ccccc4o3)C2)c1 (configuration not stated)
EC50 [3]: 0.103 µM (active) | EC50 [4]: > 60 µM (not active)

COc1ccccc1C(=O)Nc1nnc(S(=O)(=O)N2CCN(c3ccc(F)cc3)CC2)s1
EC50 [2]: 20.1 µM (active) | EC50 (Streptokinase A): > 50 µM (not active) | EC50 (Streptococcus): 119 µM (inconclusive)

O=C(COC(=O)c1ccccc1)Nc1ccccc1Sc1ccccc1
EC50 [2]: > 150 µM (not active) | EC50 (Streptokinase A): 28.8 µM (active) | EC50 (Streptococcus): > 150 µM (not active)

CCN1CC(CN(C)Cc2nc(-c3ccc(C(F)(F)F)cc3)oc2C)CC1=O (configuration not stated)
EC50 [3]: 0.288 µM (active) | EC50 [4]: 32.6 µM (active)

Cc1ccc(NC(=O)OCc2cn(-c3ccc(Cl)cc3)nn2)cc1
AC50 (Cytochrome P450 3A4): 7.94 µM (inconclusive)

CC(Oc1ccc(Cl)cc1Cl)C(=O)Nc1ccc(S(=O)(=O)Nc2cnc3ccccc3n2)cc1 (configuration not stated)
EC50 [2]: 2.45 µM (active) | EC50 (Streptokinase A): 3.69 µM (active) | EC50 (Streptococcus): 7.38 µM (active)

COc1ccc(C2CC(c3cccs3)=NN2C(=O)CSc2nc(O)c3cnn(-c4ccccc4)c3n2)cc1 (configuration not stated)
EC50 [2]: 3 µM (active) | EC50 (Streptococcus): 5.77 µM (active)

COc1ccccc1CNC(=O)c1ccc(-c2ccccc2Cl)o1
EC50 [2]: 15.3 µM (active) | EC50 (Streptokinase A): > 150 µM (not active) | EC50 (Streptococcus): 17.5 µM (active)

O=C(CSc1nc2ccc([N+](=O)[O-])cc2s1)c1ccc2ccccc2c1
AC50 (Cytochrome P450 3A4): 3.98 µM (inconclusive)

O=C(Cn1cnc2cc([N+](=O)[O-])ccc2c1=O)Nc1ccc(Br)cc1
EC50 [3]: 0.85 µM (active) | EC50 [4]: > 30 µM (not active)

Cc1noc(C)c1CSCC(=O)Nc1nc2ccc(Oc3ccccc3)cc2s1
EC50 [2]: 4.32 µM (active) | EC50 (Streptokinase A): 16.9 µM (active) | EC50 (Streptococcus): > 150 µM (not active)

CN(C)c1ccc(-c2noc(C3CCN(S(=O)(=O)c4cccc(C(=O)O)c4)CC3)n2)cc1
AC50 (Cytochrome P450 2C9): 15.8 µM (inconclusive)

Cc1c(C(=O)N2CCC(Cc3ccccc3)CC2)sc2ncnc(N3CCC(C)CC3)c12
EC50 [2]: 11.6 µM (active) | EC50 (Streptokinase A): 3.68 µM (active) | EC50 [3]: 1.68 µM (active) | EC50 [4]: > 60 µM (not active) | EC50 (Streptococcus): 60 µM (active)

COc1ccc(C(=O)Nc2sc(C)c(-c3ccccc3)c2C#N)cc1OC
EC50 [2]: 9.09 µM (active) | EC50 (Streptokinase A): > 150 µM (not active) | EC50 (Streptococcus): 45.5 µM (active)

Cc1ccc(N2C(=O)C3N=NN(CC(=O)N4N=C(c5cccc6ccccc56)CC4c4ccccc4)C3C2=O)cc1 (configuration not stated)
EC50 [2]: 31.4 µM (active) | EC50 (Streptokinase A): 35.7 µM (active) | EC50 (Streptococcus): > 150 µM (not active)

CC(C)CN1CCCC2(CCN(C(=O)c3cccn3C)CC2)C1
AC50 (Cytochrome P450 3A4): 12.6 µM (inconclusive)

CCCCOc1cc(C[C@@H]2CNC(=O)N2)ccc1OC
AC50 (Cytochrome P450 3A4): 15.8 µM (inconclusive)

O=C(O)CSc1nnc(Cn2c(=O)sc3ccccc32)n1-c1cccc(Cl)c1
EC50 [2]: > 150 µM (not active) | EC50 (Streptokinase A): > 150 µM (not active) | EC50 (Streptococcus): > 150 µM (not active)
